From US9504668B2 (priority 2013, dated 2016)

Key:
Test in all cases: animal or person
Assay type in all cases: in vivo
Male Sprague-Dawley rats [1] = details: Rattus norvegicus, iv, read-out: Intervention Protection %
Mice = details: Mus musculus, po; for ED50: read-out: MES test ED50
Male Sprague-Dawley rats [2] = details: for ED50: Rattus norvegicus, read-out: Prevention ED50; for ED50 / Prevention Peak Time: ip; for Prevention Peak Time / Prevention Protection %: rat, in vivo
[3] = read-out: MES test Protection %

Row | SMILES | responders at 46 mg/kg (Male Sprague-Dawley rats [1]) [%] | responders at 90 mg/kg (Mice; [3]) [%] | also measured
1 | COCO[C@@H](c1ccccc1Cl)[C@H](C)OC(N)=O [Example 1, 1-(2-chlorophenyl)-(S)-1-methoxymethoxypropyl-(S)-2-carbamate] | 50 |  | ED50 (Mice): 21.6 mg/kg; ED50 (Male Sprague-Dawley rats [2]): 26.6 mg/kg; Prevention Peak Time (Male Sprague-Dawley rats [2]): 0.5 h
2 | CC[C@H](OC(N)=O)[C@@H](OCOC)c1ccccc1Cl [Example 9, 1-(2-chlorophenyl)-(S)-1-methoxymethoxybutyl-(S)-2-carbamate] | 33.3 | 100 | 
3 | COCO[C@@H](c1ccccc1Cl)[C@@H](OC(N)=O)C(C)C [Example 10, 1-(2-chlorophenyl)-(S)-1-methoxymethoxy-3-methyl-butyl-(S)-2-carbamate] | 66.7 | 100 | 
4 | CCCC[C@H](OC(N)=O)[C@@H](OCOC)c1ccccc1Cl [Example 11, 1-(2-chlorophenyl)-(S)-1-methoxymethoxyhexyl-(S)-2-carbamate] | 66.7 | 100 | 
5 | COCO[C@@H](c1ccccc1I)[C@H](C)OC(N)=O [Example 20, 1-(2-iodophenyl)-(S)-1-methoxymethoxypropyl-(S)-2-carbamate] | 16.7 |  | ED50 (Mice): 29.5 mg/kg; ED50 (Male Sprague-Dawley rats [2]): 25.9 mg/kg; Prevention Peak Time (Male Sprague-Dawley rats [2]): 1 h
6 | CC[C@H](OC(N)=O)[C@@H](OCOC)c1ccccc1I [Example 28, 1-(2-iodophenyl)-(S)-1-methoxymethoxybutyl-(S)-2-carbamate] | 33.3 | 33.3 | Prevention Protection % (Male Sprague-Dawley rats [2]): ^a50 (100%)
7 | COCO[C@@H](c1ccccc1I)[C@@H](OC(N)=O)C(C)C [Example 36, 1-(2-iodophenyl)-(S)-1-methoxymethoxy-3-methyl-butyl-(S)-2-carbamate] |  | 100 | 
8 | CCCC[C@H](OC(N)=O)[C@@H](OCOC)c1ccccc1I [Example 44, 1-(2-iodophenyl)-(S)-1-methoxymethoxyhexyl-(S)-2-carbamate] |  | 100 | 
9 | COCO[C@@H](c1cccc(I)c1)[C@H](C)OC(N)=O [Example 52, 1-(3-iodophenyl)-(S)-1-methoxymethoxypropyl-(S)-2-carbamate] | 100 |  | ED50 (Mice): 24.7 mg/kg; Prevention Protection % (Male Sprague-Dawley rats [2]): ^a20 (16.7%)
10 | COCO[C@@H](c1cccc(Cl)c1Cl)[C@H](C)OC(N)=O [Example 68, 1-(2,3-dichlorophenyl)-(S)-1-methoxymethoxypropyl-(S)-2-carbamate] | 40 | 100 | 
11 | COCO[C@H](c1ccccc1Cl)[C@@H](C)OC(N)=O [Example 69, 1-(2-chlorophenyl)-(R)-1-methoxymethoxypropyl-(R)-2-carbamate] |  | 66.6 | 
12 | COCO[C@H](c1ccccc1Cl)[C@H](C)OC(N)=O [Example 71, 1-(2-chlorophenyl)-(R)-1-methoxymethoxypropyl-(S)-2-carbamate] | 100 | 100 | 
13 | COCO[C@@H](c1ccccc1Cl)[C@@H](C)OC(N)=O [Example 72, 1-(2-chlorophenyl)-(S)-1-methoxymethoxypropyl-(R)-2-carbamate] | 50 | 100 | 
14 | COCO[C@H](c1c(Cl)cccc1Cl)[C@@H](C)OC(N)=O [Example 107, 1-(2,6-dichlorophenyl)-(R)-1-methoxymethoxypropyl-(R)-2-carbamate] |  |  | responders at 30 mg/kg (Mice; [3]): 33.3%
15 | CO[C@@H](c1ccccc1Cl)[C@H](C)OC(N)=O [Example 124, 1-(2-chlorophenyl)-(S)-1-methoxypropyl-(S)-2-carbamate] |  |  | ED50 (Mice): 15.6 mg/kg
16 | CO[C@@H](c1ccccc1F)[C@H](C)OC(N)=O [Example 135, 1-(2-fluorophenyl)-(S)-1-methoxypropyl-(S)-2-carbamate] | 100 |  | ED50 (Mice): 12.5 mg/kg; Prevention Protection % (Male Sprague-Dawley rats [2]): ^a20 (16.7%)
17 | CO[C@@H](c1ccccc1I)[C@H](C)OC(N)=O [Example 143, 1-(2-iodophenyl)-(S)-1-methoxypropyl-(S)-2-carbamate] |  |  | responders at 23 mg/kg (Male Sprague-Dawley rats [1]): 66.7%; ED50 (Mice): 15.7 mg/kg; ED50 (Male Sprague-Dawley rats [2]): 19.6 mg/kg; Prevention Peak Time (Male Sprague-Dawley rats [2]): 1 h
18 | CC[C@H](OC(N)=O)[C@@H](OC)c1ccccc1I [Example 151, 1-(2-iodophenyl)-(S)-1-methoxybutyl-(S)-2-carbamate] | 100 |  | ED50 (Mice): 37 mg/kg; Prevention Protection % (Male Sprague-Dawley rats [2]): ^a60 (100%)
19 | CCCC[C@H](OC(N)=O)[C@@H](OC)c1ccccc1I [Example 167, 1-(2-iodophenyl)-(S)-1-methoxyhexyl-(S)-2-carbamate] |  | 33.3 | 
20 | CO[C@@H](c1cccc(I)c1)[C@@H](OC(N)=O)C(C)C [Example 177, 1-(3-iodophenyl)-(S)-1-methoxy-3-methyl-butyl-(S)-2-carbamate] |  | 66.6 | 
21 | CO[C@@H](c1ccc(F)cc1)[C@H](C)OC(N)=O [Example 179, 1-(4-fluorophenyl)-(S)-1-methoxypropyl-(S)-2-carbamate] |  | 33.3 | 
22 | CO[C@@H](c1ccc(Cl)cc1Cl)[C@H](C)OC(N)=O [Example 183, 1-(2,4-dichlorophenyl)-(S)-1-methoxypropyl-(S)-2-carbamate] | 100 | 100 | 

Row | SMILES | responders at 46 mg/kg (Male Sprague-Dawley rats [1]) [%] | responders at 90 mg/kg (Mice; [3]) [%] | also measured
23 | CO[C@@H](c1cccc(Cl)c1Cl)[C@H](C)OC(N)=O [Example 191, 1-(2,3-dichlorophenyl)-(S)-1-methoxypropyl-(S)-2-carbamate] | 100 | 100 | 
24 | CO[C@H](c1ccccc1Cl)[C@H](C)OC(N)=O [Example 194, 1-(2-chlorophenyl)-(R)-1-methoxypropyl-(S)-2-carbamate] | 83.3 | 100 | 
25 | CO[C@@H](c1ccccc1Cl)[C@@H](C)OC(N)=O [Example 195, 1-(2-chlorophenyl)-(S)-1-methoxypropyl-(R)-2-carbamate] | 50 | 100 | 
26 | CCCC[C@@H](OC(N)=O)[C@H](OC)c1ccc(F)cc1 [Example 213, 1-(4-fluorophenyl)-(R)-1-methoxyhexyl-(R)-2-carbamate] |  | 33.3 | 
27 | CC[C@@H](OC(N)=O)[C@H](OC)c1ccc(Cl)cc1Cl [Example 232, 1-(2,4-dichlorophenyl)-(R)-1-methoxybutyl-(R)-2-carbamate] |  | 33.3 | 
28 | C[C@@H](OC(N)=O)[C@H](OC(N)=O)c1ccccc1Cl [Example 250, 1-(2-chlorophenyl)-(R)-2-carbamoyloxypropyl-(R)-1-carbamate] |  |  | ED50 (Mice): 46.3 mg/kg; Prevention Protection % (Male Sprague-Dawley rats [2]): ^a60 (16.7%)
29 | CC(OC(N)=O)C(OC(N)=O)c1ccccc1Cl (centres unmarked) [Example 251, 1-(2-chlorophenyl)-2-carbamoyloxypropyl-1-carbamate] |  |  | responders at 100 mg/kg (Mice; [3]): 33.3%
30 | C[C@H](OC(N)=O)[C@@H](OC(N)=O)c1ccccc1I [Example 259, 1-(2-iodophenyl)-(S)-1-carbamoyloxypropyl-(S)-2-carbamate] |  | 66.6 | 
31 | C[C@H](OC(N)=O)[C@@H](OC(N)=O)c1c(Cl)cccc1Cl [Example 267, 1-(2,6-dichlorophenyl)-(S)-1-carbamoyloxypropyl-(S)-2-carbamate] |  |  | responders at 50 mg/kg (Mice; [3]): 16.6%
32 | COCO[C@H](c1cc(Cl)ccc1Cl)[C@@H](C)OC(N)=O [Example 273, 1-(2,5-dichlorophenyl)-(R)-1-methoxymethoxypropyl-(R)-2-carbamate] |  |  | responders at 30 mg/kg (Mice; [3]): 33.3%
33 | COCO[C@@H](C)[C@@H](OC(N)=O)c1ccccc1Cl [Example 274, 1-(2-chlorophenyl)-(S)-2-methoxymethoxypropyl-(S)-1-carbamate] | 33.3 | 100 | 
34 | CO[C@@H](C)[C@@H](OC(N)=O)c1ccccc1Cl [Example 275, 1-(2-chlorophenyl)-(S)-2-methoxypropyl-(S)-1-carbamate] |  | 100 | 
35 | COCO[C@H](COC(N)=O)c1ccccc1I [Example 278, 1-(2-iodophenyl)-(S)-1-methoxymethoxyethyl-2-carbamate] |  |  | responders at 30 mg/kg (Mice; [3]): 33.3%
36 | COCO[C@@H](C)[C@@H](OC(N)=O)c1ccccc1I [Example 282, 1-(2-iodophenyl)-(S)-2-methoxymethoxypropyl-1-carbamate] |  | 33.3 | 
37 | CO[C@@H](C)[C@@H](OC(N)=O)c1ccccc1I [Example 283, 1-(2-iodophenyl)-(S)-2-methoxypropyl-1-carbamate] |  | 100 | 
38 | COCO[C@@H](C)[C@@H](OC(N)=O)c1ccccc1F [Example 284, 1-(2-fluorophenyl)-(S)-2-methoxymethoxypropyl-1-carbamate] |  | 33.3 | 
39 | C[C@H](OC(N)=O)[C@@H](OC(N)=O)c1c(F)cccc1Cl [Example 286, 1-(2-chloro-6-fluorophenyl)-(S)-1-carbamoyloxypropyl-(S)-2-carbamate] |  | 33.3 | 
40 | C[C@@H](OC(N)=O)[C@H](OC(N)=O)c1ccccc1F [Example 289, 1-(2-fluorophenyl)-(R)-1-carbamoyloxypropyl-(R)-2-carbamate] |  |  | ED50 (Mice): 56.2 mg/kg; Prevention Protection % (Male Sprague-Dawley rats [2]): ^a80 (16.7%)
41 | C[C@@H](OC(N)=O)[C@H](OC(N)=O)c1c(Cl)cccc1Cl [Example 290, 1-(2,6-dichlorophenyl)-(R)-1-carbamoyloxypropyl-(R)-2-carbamate] |  |  | responders at 30 mg/kg (Mice; [3]): 33.3%
42 | C[C@@H](OC(N)=O)[C@H](OC(N)=O)c1c(F)cccc1F [Example 292, 1-(2,6-difluorophenyl)-(R)-1-carbamoyloxypropyl-(R)-2-carbamate] |  |  | responders at 56 mg/kg (Mice; [3]): 33.3%
43 | C[C@@H](OC(N)=O)[C@@H](OC(N)=O)c1ccccc1Cl [Example 294, 1-(2-chlorophenyl)-(S)-1-carbamoyloxypropyl-(R)-2-carbamate] |  | 66.6 | 
44 | C[C@H](OC(N)=O)[C@H](OC(N)=O)c1ccccc1Cl [Example 295, 1-(2-chlorophenyl)-(R)-1-carbamoyloxypropyl-(S)-2-carbamate] |  | 100 | 
